Measurements from patent US10253039B2, “Inhibitors of bacterial DNA gyrase with efficacy against gram-negative bacteria” (priority 2014, dated 2019).
Values after ≈ are worked out from the molar mass of the structure shown.

Test system: Streptococcus agalactiae
Assay: MIC, 20-strain panel
Type: cell-based
Settings: not given
Method: (§1) A microdilution method in 96-well plates was used and the MIC protocol established by the Clinical Laboratory Standards Institute was followed. From a growing subculture, a 1:10000 inoculum of each strain in Luria-Bertani media was prepared and aliquoted 100 μL in 4 columns of wells, except for the top row wells, which contained 200 μL of inoculum. A solution of gyramide C2 was aliquoted into 3 of the wells containing 200 μL and DMSO was added to the 4th well. The liquid in each of wells was mixed with a multi-channel pipet and 100 μL was transferred to the next well and mixed. The 2-fold dilution was continued down the 96-well plate until 100 μL was left, which was discarded. The plates were incubated at 37° C. with shaking for 16-18 hours. The MIC was determined as the lowest concentration that inhibited growth and had no turbidity by visual inspection.
(§2) Minimum inhibitory concentrations of various gyramide compounds against 20 strains of bacteria were determined using the procedure described above.

SMILES | MIC [µg/mL]
CC(C)Oc1ccc(CN2CC[C@@H](NS(=O)(=O)c3cc(Cl)cc(C(F)(F)F)c3)C2)cc1 [Compound 92] | > 8
Cc1nn(C)c2ncc(S(=O)(=O)N[C@@H]3CCN(Cc4ccc(-c5ccccc5)cc4)C3)cc12 [Compound 115] | > 8
O=S(=O)(N[C@@H]1CCN(Cc2ccc(OC3CC3)cc2)C1)c1cnc2ccsc2c1 [Compound 158] | > 8
Cn1ccc(-c2ccc(CN3CC[C@@H](NS(=O)(=O)c4cccc(C#N)c4)C3)cc2)n1 [Compound 170] | > 8
Cc1nn(C)c2ncc(S(=O)(=O)N[C@@H]3CCN(Cc4ccc(OC5CC5)cc4)C3)cc12 [Compound 157] | > 8

Test system: Shigella flexneri
Assay: MIC, 20-strain panel
Type: cell-based
Settings: not given
Method: as §1, §2

SMILES | MIC [µg/mL]
O=S(=O)(N[C@@H]1CCN(Cc2ccc(OC3CC3)cc2)C1)c1cnc2ccsc2c1 [Compound 158] | > 8
Cn1ccc(-c2ccc(CN3CC[C@@H](NS(=O)(=O)c4cccc(C#N)c4)C3)cc2)n1 [Compound 170] | > 8
Cc1nn(C)c2ncc(S(=O)(=O)N[C@@H]3CCN(Cc4ccc(OC5CC5)cc4)C3)cc12 [Compound 157] | > 8

Same assay, conditions: G: Shigella flexneri

SMILES | MIC [µg/mL]
CC(C)Oc1ccc(CN2CC[C@@H](NS(=O)(=O)c3cc(Cl)cc(C(F)(F)F)c3)C2)cc1 [Compound 92] | > 8
Cc1nn(C)c2ncc(S(=O)(=O)N[C@@H]3CCN(Cc4ccc(-c5ccccc5)cc4)C3)cc12 [Compound 115] | > 8

Test system: Staphylococcus epidermidis
Assay: MIC, 20-strain panel
Type: cell-based
Settings: not given
Method: as §1, §2

SMILES | MIC [µg/mL]
CC(C)Oc1ccc(CN2CC[C@@H](NS(=O)(=O)c3cc(Cl)cc(C(F)(F)F)c3)C2)cc1 [Compound 92] | > 8
Cc1nn(C)c2ncc(S(=O)(=O)N[C@@H]3CCN(Cc4ccc(-c5ccccc5)cc4)C3)cc12 [Compound 115] | > 8
O=S(=O)(N[C@@H]1CCN(Cc2ccc(OC3CC3)cc2)C1)c1cnc2ccsc2c1 [Compound 158] | > 8
Cn1ccc(-c2ccc(CN3CC[C@@H](NS(=O)(=O)c4cccc(C#N)c4)C3)cc2)n1 [Compound 170] | > 8
Cc1nn(C)c2ncc(S(=O)(=O)N[C@@H]3CCN(Cc4ccc(OC5CC5)cc4)C3)cc12 [Compound 157] | > 8

Test system: E. coli JW5503 (deltolC)
Assay: MIC, 20-strain panel
Type: cell-based
Settings: Escherichia coli, C: E. coli JW5503 (deltolC)
Method: as §1, §2

SMILES | MIC [µg/mL]
CC(C)Oc1ccc(CN2CC[C@@H](NS(=O)(=O)c3cc(Cl)cc(C(F)(F)F)c3)C2)cc1 [Compound 92] | 8 (≈ 16.8 µM)
Cc1nn(C)c2ncc(S(=O)(=O)N[C@@H]3CCN(Cc4ccc(-c5ccccc5)cc4)C3)cc12 [Compound 115] | > 8

Same assay, conditions: Escherichia coli, E. coli JW5503 (deltolC)

SMILES | MIC [µg/mL]
O=S(=O)(N[C@@H]1CCN(Cc2ccc(OC3CC3)cc2)C1)c1cnc2ccsc2c1 [Compound 158] | > 8
Cn1ccc(-c2ccc(CN3CC[C@@H](NS(=O)(=O)c4cccc(C#N)c4)C3)cc2)n1 [Compound 170] | 2 (≈ 4.74 µM)
Cc1nn(C)c2ncc(S(=O)(=O)N[C@@H]3CCN(Cc4ccc(OC5CC5)cc4)C3)cc12 [Compound 157] | > 8

Test system: Streptococcus pyogenes
Assay: MIC, 20-strain panel
Type: cell-based
Settings: not given
Method: as §1, §2

SMILES | MIC [µg/mL]
CC(C)Oc1ccc(CN2CC[C@@H](NS(=O)(=O)c3cc(Cl)cc(C(F)(F)F)c3)C2)cc1 [Compound 92] | > 8
Cc1nn(C)c2ncc(S(=O)(=O)N[C@@H]3CCN(Cc4ccc(-c5ccccc5)cc4)C3)cc12 [Compound 115] | > 8
O=S(=O)(N[C@@H]1CCN(Cc2ccc(OC3CC3)cc2)C1)c1cnc2ccsc2c1 [Compound 158] | > 8
Cn1ccc(-c2ccc(CN3CC[C@@H](NS(=O)(=O)c4cccc(C#N)c4)C3)cc2)n1 [Compound 170] | > 8
Cc1nn(C)c2ncc(S(=O)(=O)N[C@@H]3CCN(Cc4ccc(OC5CC5)cc4)C3)cc12 [Compound 157] | > 8

Test system: Staphylococcus aureus subsp. aureus
Assay: MIC, 20-strain panel
Type: cell-based
Settings: H: Staphylococcus aureus subsp. aureus, read-out: MIC
Method: as §1, §2

SMILES | MIC [µg/mL]
CC(C)Oc1ccc(CN2CC[C@@H](NS(=O)(=O)c3cc(Cl)cc(C(F)(F)F)c3)C2)cc1 [Compound 92] | > 8
Cc1nn(C)c2ncc(S(=O)(=O)N[C@@H]3CCN(Cc4ccc(-c5ccccc5)cc4)C3)cc12 [Compound 115] | > 8

Same assay, conditions: Staphylococcus aureus subsp. aureus, read-out: MIC

SMILES | MIC [µg/mL]
O=S(=O)(N[C@@H]1CCN(Cc2ccc(OC3CC3)cc2)C1)c1cnc2ccsc2c1 [Compound 158] | > 8
Cn1ccc(-c2ccc(CN3CC[C@@H](NS(=O)(=O)c4cccc(C#N)c4)C3)cc2)n1 [Compound 170] | > 8
Cc1nn(C)c2ncc(S(=O)(=O)N[C@@H]3CCN(Cc4ccc(OC5CC5)cc4)C3)cc12 [Compound 157] | > 8

Test system: Klebsiella pneumoniae subsp. pneumoniae
Assay: MIC, 20-strain panel
Type: cell-based
Settings: E: Klebsiella pneumoniae subsp. pneumoniae
Method: as §1, §2

SMILES | MIC [µg/mL]
CC(C)Oc1ccc(CN2CC[C@@H](NS(=O)(=O)c3cc(Cl)cc(C(F)(F)F)c3)C2)cc1 [Compound 92] | > 8
Cc1nn(C)c2ncc(S(=O)(=O)N[C@@H]3CCN(Cc4ccc(-c5ccccc5)cc4)C3)cc12 [Compound 115] | > 8

Same assay, conditions: Klebsiella pneumoniae subsp. pneumoniae

SMILES | MIC [µg/mL]
O=S(=O)(N[C@@H]1CCN(Cc2ccc(OC3CC3)cc2)C1)c1cnc2ccsc2c1 [Compound 158] | > 8
Cn1ccc(-c2ccc(CN3CC[C@@H](NS(=O)(=O)c4cccc(C#N)c4)C3)cc2)n1 [Compound 170] | > 8
Cc1nn(C)c2ncc(S(=O)(=O)N[C@@H]3CCN(Cc4ccc(OC5CC5)cc4)C3)cc12 [Compound 157] | > 8

Test system: Salmonella enterica subsp. enterica typhimurium
Assay: MIC, 20-strain panel
Type: cell-based
Settings: F: Salmonella enterica subsp. enterica Typhimurium
Method: as §1, §2

SMILES | MIC [µg/mL]
CC(C)Oc1ccc(CN2CC[C@@H](NS(=O)(=O)c3cc(Cl)cc(C(F)(F)F)c3)C2)cc1 [Compound 92] | > 8
Cc1nn(C)c2ncc(S(=O)(=O)N[C@@H]3CCN(Cc4ccc(-c5ccccc5)cc4)C3)cc12 [Compound 115] | > 8

Same assay, conditions: Salmonella enterica subsp. enterica Typhimurium

SMILES | MIC [µg/mL]
O=S(=O)(N[C@@H]1CCN(Cc2ccc(OC3CC3)cc2)C1)c1cnc2ccsc2c1 [Compound 158] | > 8
Cn1ccc(-c2ccc(CN3CC[C@@H](NS(=O)(=O)c4cccc(C#N)c4)C3)cc2)n1 [Compound 170] | > 8
Cc1nn(C)c2ncc(S(=O)(=O)N[C@@H]3CCN(Cc4ccc(OC5CC5)cc4)C3)cc12 [Compound 157] | > 8

Test system: E. coli MG1655
Assay: MIC, 20-strain panel
Type: cell-based
Settings: Escherichia coli, MG1655, A: E. coli MG1655; read-out: MIC
Method: as §1, §2

SMILES | MIC [µg/mL]
CC(C)Oc1ccc(CN2CC[C@@H](NS(=O)(=O)c3cc(Cl)cc(C(F)(F)F)c3)C2)cc1 [Compound 92] | > 8
Cc1nn(C)c2ncc(S(=O)(=O)N[C@@H]3CCN(Cc4ccc(-c5ccccc5)cc4)C3)cc12 [Compound 115] | > 8

Same assay, conditions: Escherichia coli, MG1655, E. coli MG1655; read-out: MIC

SMILES | MIC [µg/mL]
O=S(=O)(N[C@@H]1CCN(Cc2ccc(OC3CC3)cc2)C1)c1cnc2ccsc2c1 [Compound 158] | > 8
Cn1ccc(-c2ccc(CN3CC[C@@H](NS(=O)(=O)c4cccc(C#N)c4)C3)cc2)n1 [Compound 170] | > 8
Cc1nn(C)c2ncc(S(=O)(=O)N[C@@H]3CCN(Cc4ccc(OC5CC5)cc4)C3)cc12 [Compound 157] | > 8

Test system: Staphylococcus saprophyticus subsp. saprophyticus
Assay: MIC, 20-strain panel
Type: cell-based
Settings: not given
Method: as §1, §2

SMILES | MIC [µg/mL]
CC(C)Oc1ccc(CN2CC[C@@H](NS(=O)(=O)c3cc(Cl)cc(C(F)(F)F)c3)C2)cc1 [Compound 92] | > 8
Cc1nn(C)c2ncc(S(=O)(=O)N[C@@H]3CCN(Cc4ccc(-c5ccccc5)cc4)C3)cc12 [Compound 115] | > 8
O=S(=O)(N[C@@H]1CCN(Cc2ccc(OC3CC3)cc2)C1)c1cnc2ccsc2c1 [Compound 158] | > 8
Cn1ccc(-c2ccc(CN3CC[C@@H](NS(=O)(=O)c4cccc(C#N)c4)C3)cc2)n1 [Compound 170] | > 8
Cc1nn(C)c2ncc(S(=O)(=O)N[C@@H]3CCN(Cc4ccc(OC5CC5)cc4)C3)cc12 [Compound 157] | > 8

Test system: E. coli BW25113
Assay: MIC, microdilution in 96-well plates
Type: cell-based
Settings: Escherichia coli, BW25113, B: E. coli BW25113; read-out: MIC
Outline: (§3)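 CLSI microdilution, LB, 1:10000 inoculum of actively growing culture; 2-fold dilution series in triplicate, DMSO control lane; 37° C., shaking, 16-18 h; endpoint = no visible growth.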

SMILES | MIC [µg/mL]
CC(C)Oc1ccc(CN2CC[C@@H](NS(=O)(=O)c3cc(Cl)cc(C(F)(F)F)c3)C2)cc1 [Compound 92] | > 8
Cc1nn(C)c2ncc(S(=O)(=O)N[C@@H]3CCN(Cc4ccc(-c5ccccc5)cc4)C3)cc12 [Compound 115] | > 8

Same assay, conditions: Escherichia coli, BW25113, E. coli BW25113; read-out: MIC

SMILES | MIC [µg/mL]
O=S(=O)(N[C@@H]1CCN(Cc2ccc(OC3CC3)cc2)C1)c1cnc2ccsc2c1 [Compound 158] | > 8
Cn1ccc(-c2ccc(CN3CC[C@@H](NS(=O)(=O)c4cccc(C#N)c4)C3)cc2)n1 [Compound 170] | > 8
Cc1nn(C)c2ncc(S(=O)(=O)N[C@@H]3CCN(Cc4ccc(OC5CC5)cc4)C3)cc12 [Compound 157] | > 8

Test system: Edwardsiella tarda
Assay: MIC, microdilution in 96-well plates
Type: cell-based
Settings: not given
Outline: as §3

SMILES | MIC [µg/mL]
O=S(=O)(N[C@@H]1CCN(Cc2ccc(OC3CC3)cc2)C1)c1cnc2ccsc2c1 [Compound 158] | > 8
Cn1ccc(-c2ccc(CN3CC[C@@H](NS(=O)(=O)c4cccc(C#N)c4)C3)cc2)n1 [Compound 170] | > 8
Cc1nn(C)c2ncc(S(=O)(=O)N[C@@H]3CCN(Cc4ccc(OC5CC5)cc4)C3)cc12 [Compound 157] | > 8

Same assay, conditions: D: Edwardsiella tarda

SMILES | MIC [µg/mL]
CC(C)Oc1ccc(CN2CC[C@@H](NS(=O)(=O)c3cc(Cl)cc(C(F)(F)F)c3)C2)cc1 [Compound 92] | > 8
Cc1nn(C)c2ncc(S(=O)(=O)N[C@@H]3CCN(Cc4ccc(-c5ccccc5)cc4)C3)cc12 [Compound 115] | > 8
